# Tested on: CD1 female mouse brain lipidome
# Test: Brain-region lipid levels (HPLC/MS/MS lipidomics) 2 h after single i.p. 3 mg/kg CP 55,940 vs vehicle
# Assay type: in vivo
# Set-up: N-arachidonoyl phenylalanine level, Mean / N-stearoyl tryptophan level, Mean / N-stearoyl proline level, Mean / N-stearoyl leucine level, Mean / N-stearoyl phenylalanine level, Mean / N-stearoyl serine level, Mean / N-stearoyl methionine level, Mean: unit: moles per gram
# Conditions: midbrain
# Experimental: The Bloomington Institutional Animal Care and Use Committee of Indiana University reviewed and approved the animal procedures. Female mice from the CD1 strain were utilized to match our study examining THC’s effects on the brain lipidome ([Leishman et al., 2018]). Mice were given a single i.p. injection of either 3 mg/kg CP or 1:1:18 cremophor:ethanol:saline vehicle (please refer to the section “3 mg/kg CP Is Relevant for Synthetic Cannabinoid Abuse and Has Stronger Effects on the Female Mouse Brain Lipidome During Adolescence” for a justification of dose and use of female mice). Three different age groups were given injections: PND 35 and PND 50 adolescents, and adult mice (PND 113). At least eight mice in each age group received CP and at least eight received vehicle. Matching the THC study time course ([Leishman et al., 2018]), mice were sacrificed via rapid decapitation 2 h after injection. Brains were immediately removed and flash-frozen in liquid nitrogen, and then stored at -80°C until dissections were performed. Brains were dissected on an ice-cold dissection plate into the following regions: STR, HIPP, CER, THAL, CTX, HYP, MID, and STEM. These abbreviations for these brain areas will be used exclusively when discussing the results generated by these specific dissections. Each dissected area was immediately placed in liquid nitrogen and then stored at -80°C until used for lipid extraction.
# Tissue extracts were performed as previously described ([Bradshaw et al., 2006]; [Stuart et al., 2013]; [Raboune et al., 2014]; [Leishman et al., 2016a],[b], [2017], [2018]). First, samples were shock frozen in liquid nitrogen, weighed, and transferred to a centrifuge tube. The mass of the largest sample was multiplied by 50 to determine how many milliliters of HPLC-grade methanol (Fisher, Fair Lawn, NJ, United States) to add. Then, samples were spiked with 500 pmol deuterium-labeled NAGly (d8NAGly; Cayman Chemical, Ann Arbor, MI, United States). Samples were placed on ice in darkness for 2 h then individually homogenized and centrifuged at 19,000 × g for 20 min at 20°C. Supernatants were diluted with HPLC water (purified in house) to make a solution of 75% water, 25% supernatant. Lipids were partially purified on C18 solid phase extraction columns (Agilent, Palo Alto, CA, United States). A series of four elutions with 1.5 mL of 60%, 75%, 85%, and 100% methanol were collected ([Stuart et al., 2013]; [Leishman et al., 2016a],[b], [2018]).
# As previously described ([Bradshaw et al., 2006]; [Tan et al., 2006]; [Smoum et al., 2010]; [Stuart et al., 2013]; [Tortoriello et al., 2013]; [Raboune et al., 2014]; [Leishman et al., 2016a],[b], [2017], [2018]), samples were analyzed using an Applied Biosystems API 3000 triple quadrupole mass spectrometer with electrospray ionization (Foster City, CA, United States). Using an Agilent XDB-C18 reversed phase analytical column and optimized mobile phase gradients, 20 μL from each elution were chromatographed. Two Shimadzu 10ADvp pumps (Columbia, MD, United States) provided the pressure for gradient elution. Mobile phase A: 20% methanol, 80% water (v/v) and 1 mM ammonium acetate (Sigma, St. Louis, MO, United States). Mobile phase B: 100% methanol, 1 mM ammonium acetate. Every method run began with 0% mobile phase B, reached 100% mobile phase B flowing at 0.2 mL/min, and gradually returned to 0% mobile phase B.
# This screening library will be referred to as the lipidome when discussing data from this study. HPLC/MS/MS data were analyzed using Analyst software (Applied Biosystems) ([Bradshaw et al., 2006]; [Tan et al., 2006]; [Stuart et al., 2013]; [Tortoriello et al., 2013]; [Raboune et al., 2014]; [Leishman et al., 2016a],[b], [2017], [2018]). Chromatograms (Supplementary Figure 3) were generated by determining the retention time of analytes from the analytical column with a [M-1] or [M+1] parent peak and a fragmentation peak corresponding to the programmed values. […]
# [1] = PND 50 female mice, 3mg/kg CP 55,940
# [2] = PND 35 WT adolescent female mice, 3 mg/kg
smiles,measurement,setting,value
"CCCCCCC(C)(C)c1ccc([C@@H]2C[C@H](O)CC[C@H]2CCCO)c(O)c1 [CP 55,940]","N-linoleoyl serine level, Mean",[1],6.73E-11
same,"N-linoleoyl tryptophan level, Mean",[1],BDL
same,"N-linoleoyl tyrosine level, Mean",[1],BDL
same,"N-linoleoyl valine level, Mean",[1],BDL
same,"N-nervonoyl valine level, Mean",[1],BDL
same,"N-oleoyl GABA level, Mean",[1],5.62E-12
same,"N-oleoyl alanine level, Mean",[1],6.9E-13
same,"N-oleoyl dopamine level, Mean",[1],BDL
same,"N-oleoyl ethanolamine level, Mean",[1],1.01E-10
same,"N-oleoyl glycine level, Mean",[1],3.06E-12
same,"N-oleoyl leucine level, Mean",[1],5.64E-13
same,"N-oleoyl methionine level, Mean",[1],3.18E-13
same,"N-oleoyl phenylalanine level, Mean",[1],1.15E-12
same,"N-oleoyl proline level, Mean",[1],BDL
same,"N-oleoyl serine level, Mean",[1],1.24E-10
same,"N-oleoyl tryptophan level, Mean",[1],BDL
same,"N-oleoyl tyrosine level, Mean",[1],3.77E-13
same,"N-oleoyl valine level, Mean",[1],6.01E-14
same,"N-palmitoyl GABA level, Mean",[1],1.3E-11
same,"N-palmitoyl alanine level, Mean",[1],1.18E-12
same,"N-palmitoyl ethanolamine level, Mean",[1],7.69E-11
same,"N-palmitoyl glycine level, Mean",[1],1.39E-11
same,"N-palmitoyl leucine level, Mean",[1],1.38E-12
same,"N-palmitoyl methionine level, Mean",[1],1.13E-12
same,"N-palmitoyl phenylalanine level, Mean",[1],1.94E-12
same,"N-palmitoyl proline level, Mean",[1],BDL
same,"N-palmitoyl serine level, Mean",[1],1.74E-11
same,"N-palmitoyl tryptophan level, Mean",[1],BDL
same,"N-palmitoyl tyrosine level, Mean",[1],8.39E-13
same,"N-palmitoyl valine level, Mean",[1],3.48E-13
same,"N-stearoyl GABA level, Mean",[1],1.21E-11
same,"N-stearoyl alanine level, Mean",[1],3.21E-13
same,"N-stearoyl ethanolamine level, Mean",[1],3.26E-11
same,"N-stearoyl glycine level, Mean",[1],1.13E-12
same,"N-stearoyl leucine level, Mean",[1],7.66E-13
same,"N-stearoyl methionine level, Mean",[1],1.11E-12
same,"N-stearoyl phenylalanine level, Mean",[1],1.62E-12
same,"N-stearoyl proline level, Mean",[1],BDL
same,"N-stearoyl serine level, Mean",[1],3.85E-11
same,"N-stearoyl tryptophan level, Mean",[1],BDL
same,"N-stearoyl tyrosine level, Mean",[1],1.16E-13
same,"Oleic acid level, Mean",[1],3.11E-10
same,"PGE2 level, Mean",[1],1.09E-10
same,"PhosphoLEA level, Mean",[1],PISSR
same,"THC level, Mean",[1],BDL
same,"2-arachidonoyl glycerol level, Mean",[2],3.74E-10
same,"2-linoleoyl glycerol level, Mean",[2],1.59E-10
same,"2-oleoyl glycerol level, Mean",[2],1.88E-09
same,"2-palmitoyl glycerol level, Mean",[2],4.69E-10
same,"6-ketoPGF1α level, Mean",[2],2.09E-11
same,"Arachidonic acid level, Mean",[2],1.63E-09
same,"Linoleic acid level, Mean",[2],5.14E-10
same,"N- stearoyl valine level, Mean",[2],1.32E-12
same,"N-arachidonoyl GABA level, Mean",[2],1.53E-11
same,"N-arachidonoyl alanine level, Mean",[2],8.2E-12
same,"N-arachidonoyl ethanolamine level, Mean",[2],2.18E-11
same,"N-arachidonoyl glycine level, Mean",[2],4.42E-11
same,"N-arachidonoyl methionine level, Mean",[2],1.48E-12
same,"N-arachidonoyl phenylalanine level, Mean",[2],1.53E-12
same,"N-arachidonoyl serine level, Mean",[2],6.81E-12
same,"N-arachidonoyl taurine level, Mean",[2],3.84E-11
same,"N-arachidonoyl tyrosine level, Mean",[2],1.5E-12
same,"N-docosahexaenoyl GABA level, Mean",[2],2.08E-12
same,"N-docosahexaenoyl alanine level, Mean",[2],3.78E-12
same,"N-docosahexaenoyl ethanolamine level, Mean",[2],3.99E-11
same,"N-docosahexaenoyl glycine level, Mean",[2],1.87E-11
same,"N-docosahexaenoyl leucine level, Mean",[2],7.41E-13
same,"N-docosahexaenoyl methionine level, Mean",[2],4.7E-13
same,"N-docosahexaenoyl phenylalanine level, Mean",[2],1.08E-12
same,"N-docosahexaenoyl serine level, Mean",[2],2.39E-11
same,"N-docosahexaenoyl tyrosine level, Mean",[2],1.6E-12
same,"N-docosahexaenoyl valine level, Mean",[2],3.26E-13
same,"N-linoleoyl GABA level, Mean",[2],7.43E-13
same,"N-linoleoyl alanine level, Mean",[2],1.52E-12
same,"N-linoleoyl ethanolamine level, Mean",[2],3.78E-11
same,"N-linoleoyl glycine level, Mean",[2],4.58E-12
same,"N-linoleoyl leucine level, Mean",[2],3.56E-13
same,"N-linoleoyl phenylalanine level, Mean",[2],2.21E-13
same,"N-linoleoyl serine level, Mean",[2],5.04E-11
same,"N-oleoyl GABA level, Mean",[2],4E-12
same,"N-oleoyl alanine level, Mean",[2],7.02E-12
same,"N-oleoyl ethanolamine level, Mean",[2],1.94E-10
same,"N-oleoyl glycine level, Mean",[2],2.31E-11
same,"N-oleoyl leucine level, Mean",[2],1.53E-12
same,"N-oleoyl methionine level, Mean",[2],1.46E-12
same,"N-oleoyl phenylalanine level, Mean",[2],1.6E-12
same,"N-oleoyl serine level, Mean",[2],2.91E-10
same,"N-oleoyl tryptophan level, Mean",[2],1.39E-13
same,"N-oleoyl tyrosine level, Mean",[2],1.05E-12
same,"N-oleoyl valine level, Mean",[2],1.38E-12
same,"N-palmitoyl GABA level, Mean",[2],1.05E-11
same,"N-palmitoyl alanine level, Mean",[2],1.05E-11
same,"N-palmitoyl ethanolamine level, Mean",[2],9.08E-11
same,"N-palmitoyl glycine level, Mean",[2],4.59E-11
same,"N-palmitoyl leucine level, Mean",[2],3.23E-12
same,"N-palmitoyl methionine level, Mean",[2],2.56E-12
same,"N-palmitoyl phenylalanine level, Mean",[2],3.04E-12
same,"N-palmitoyl proline level, Mean",[2],9.03E-13
same,"N-palmitoyl serine level, Mean",[2],9.45E-11
same,"N-palmitoyl tryptophan level, Mean",[2],4.42E-13
same,"N-palmitoyl tyrosine level, Mean",[2],2.19E-12
same,"N-palmitoyl valine level, Mean",[2],2.86E-12

# — PMC6277767, “Broad and Region-Specific Impacts of the Synthetic Cannabinoid CP 55,940 in Adolescent and Adult Female Mouse Brains” (Frontiers in Molecular Neuroscience, 2018)
